Earlier results as cited in patent US20230348531A1, “ISOLATION AND PURIFICATION OF BACTERIOCIN PRODUCED BY LACTOBACILLUS SAKEI AND ANTIBACTERIAL USE THEREOF AND LACTIC ACID BACTERIA USED” (Zhejiang Gongshang University, priority 2022, published 2023).

Test system: gram-negative bacteria such as Escherichia coli
Details: background statement

For Nisin, the “inhibitory effect on gram-negative bacteria” value is listed as “no inhibitory effect”.
